Results published in PubChem BioAssay (NCI).
Several values for one entry are separate records, joined by “and”; a condition that tells them apart may be missing. Equal values may be shown once.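 96-well plates; 48 h exposure; 5 concentrations. Endpoints by linear interpolation between flanking doses. Not reached: highest tested concentration assigned. GI50 marks 50% less growth. At the TGI there is no net growth.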

How the values were obtained:
Assay in all cases: NCI tumour cell line growth inhibition, 48 h
TK-10 renal = system: TK-10 renal
SK-MEL-2 melanoma = system: SK-MEL-2 melanoma
HOP-62 NSCLC = system: HOP-62 NSCLC
NCI/ADR-RES ovarian = system: NCI/ADR-RES ovarian
HCT-15 colon = system: HCT-15 colon
MOLT-4 leukemia = system: MOLT-4 leukemia
SN12C renal = system: SN12C renal
A498 renal = system: A498 renal

SMILES	TGI (TK-10 renal)	TGI (SK-MEL-2 melanoma)	TGI (HOP-62 NSCLC)	TGI (NCI/ADR-RES ovarian)	TGI (HCT-15 colon)	TGI (MOLT-4 leukemia)	TGI (SN12C renal)	GI50 (TK-10 renal)	GI50 (SK-MEL-2 melanoma)	GI50 (HOP-62 NSCLC)	GI50 (A498 renal)	TGI (A498 renal)	GI50 (NCI/ADR-RES ovarian)	GI50 (HCT-15 colon)	GI50 (MOLT-4 leukemia)	GI50 (SN12C renal)
O=C1CC(C(=O)O)Cc2c(Br)ccc(O)c21 (centres undefined)	> 100 µM	> 100 µM	> 100 µM	> 100 µM	> 100 µM	> 100 µM	> 100 µM									
O=C(/C=C\c1cc(Br)ccc1O)/C=C/c1cc(Br)ccc1O	4.03 µM	6.15 µM	9.44 µM	12.9 µM	1.76 µM	12 µM	4.63 µM	2.05 µM	2.25 µM	3.22 µM	1.65 µM	3.26 µM	0.321 µM	0.384 µM	0.316 µM	1.47 µM
COc1ccc(/C(=C/c2ccc3ccccc3c2)c2nn[nH]n2)cc1OC	> 100 µM	> 100 µM	> 100 µM	> 100 µM	> 100 µM	> 100 µM	> 100 µM	18.5 µM	4.36 µM	2.33 µM			1.03 µM	2.92 µM	4.16 µM	9.97 µM
CS(=O)(=O)O[C@H]1C(=O)N(c2cc3c4ccccc4ccc3c3ccccc23)[C@@H]1c1ccccn1	> 100 µM	> 100 µM	> 100 µM	> 100 µM	> 100 µM	> 100 µM	> 100 µM	0.996 µM	0.687 µM	0.612 µM			0.523 µM	0.419 µM	2.22 µM	0.737 µM
COc1ccc2nc3cc(Cl)ccc3c(NCCNCC(O)CO)c2c1 (centres undefined)	12.4 µM	6.97 µM	4.74 µM	36.1 µM	20 µM	10.7 µM	9.94 µM	3.11 µM	2.01 µM	1.1 µM	0.245 µM	2.64 µM	16.2 µM	5.36 µM	0.408 µM	0.946 µM
Cc1cc(O[C@@H]2O[C@@H](C)[C@H](O)[C@@H](O)[C@H]2O)c2c3c(c(O[C@@H]4O[C@@H](C)[C@H](O)[C@@H](O)[C@H]4O)cc2c1)C(=O)c1c(O)cccc1C3=O		> 30 µM	> 30 µM	> 30 µM	> 30 µM	> 30 µM	> 30 µM		> 30 µM	> 30 µM	> 30 µM	> 30 µM	> 30 µM	> 30 µM	> 30 µM	> 30 µM
O=c1c2cccc(F)c2sc2c(NCCCNCCO)nc3ccccc3c12	3.57 µM	3.95 µM	3.59 µM	3.06 µM	2.65 µM	2.43 µM	2.9 µM	1.96 µM	1.97 µM	1.54 µM	1.5 µM	2.88 µM	1.52 µM	1.25 µM	0.698 µM	1.44 µM
Clc1ccc(-c2nc3c(-c4ccccc4)nc(-c4ccccc4)cn3c2-c2ccc(Cl)cc2)cc1	> 100 µM	> 100 µM	> 100 µM	> 100 µM	> 100 µM	> 100 µM	> 100 µM	> 100 µM	> 100 µM	> 100 µM	> 100 µM	> 100 µM	> 100 µM	> 100 µM	> 100 µM	> 100 µM
CS(=O)(=O)c1ccc2c(c1)C(=O)c1c-2n(CCCBr)c(=O)c2cc([N+](=O)[O-])ccc12	> 100 µM	43.8 µM	> 100 µM	> 100 µM	> 100 µM	> 100 µM	> 100 µM	40.2 µM	19.6 µM	8.14 µM	0.127 µM	14.8 µM	27.3 µM	48.9 µM	1.94 µM	6.88 µM
C[C@]12CCCN1CC1=NNC(=O)c3cc(F)cc4[nH]c2c1c34	> 100 µM	52.4 µM	89.4 µM	71.8 µM	> 100 µM	> 100 µM	79.1 µM	22.6 µM	22.3 µM	20.1 µM	13.9 µM	34.3 µM	20 µM	21.2 µM	22.3 µM	14.3 µM
NC(CP(=O)(O)O)C(=O)O (centres undefined)	> 100 µM	> 100 µM	> 100 µM	> 100 µM	> 100 µM	> 100 µM	> 100 µM					> 100 µM				
COc1ccc(C2CC(c3ccccc3)=NN2C(=O)c2cc(OC)c(OC)c(OC)c2)cc1O (centres undefined)	> 100 µM	> 42 µM	5.21 µM		40.2 µM	16.2 µM	34.4 µM	14.7 µM	4.74 µM	0.397 µM	0.618 µM	19.4 µM	0.552 µM	0.352 µM	0.469 µM	0.766 µM
COc1cccc(CCNC(=O)CC(c2ccccc2)(c2ccccc2)c2ccccc2)c1	82.2 µM	> 100 µM	> 100 µM	> 100 µM	> 100 µM	> 100 µM		21.9 µM	4.41 µM	59.4 µM			5.26 µM	> 100 µM	6.01 µM	
[N-]=[N+]=NCCCn1c2c(c3ccc([N+](=O)[O-])cc3c1=O)C(=O)c1cc(I)ccc1-2	> 100 µM	> 100 µM	38.8 µM	46.6 µM	> 100 µM	5.08 µM	> 100 µM	71.9 µM	71.2 µM	1.82 µM	6.52 µM	28.5 µM	4.17 µM	18.5 µM	0.833 µM	3.89 µM
COC(=O)CC1C2(C)C3=C(C)C(c4ccoc4)CC3OC2C2OC(=O)C3(C)C=CC(=O)C1(C)C23 (centres undefined)	5.94 µM	3.58 µM	9.1 µM	14.1 µM	3.15 µM	1.77 µM	2.58 µM					4.99 µM				
CC(C)(C)[Si](C)(C)OC1[C@@H](O[Si](C)(C)C(C)(C)C)[C@@H](CNC(=O)NC(=O)NC(=O)CCl)O[C@H]1n1cnc2c(NC(=O)Nc3ccccc3)ncnc21 (some centres undefined)	7.81 µM	17.6 µM	4.8 µM	15.9 µM	22.2 µM	2.53 µM	10.6 µM	2.42 µM	8.62 µM	1.66 µM	6.46 µM	13.3 µM	6.45 µM	9.28 µM	1.17 µM	3.69 µM
COC(=O)[C@H](Cc1ccccc1)NNC(=O)c1csc([C@@H](C[C@H](C(C)C)N(C)C(=O)[C@@H](NC(=O)[C@H]2CCCCN2C)C2CC2)OC(C)=O)n1	25 µM and > 100 µM	> 100 µM	25 µM and > 100 µM	25 µM and > 100 µM	25 µM and > 100 µM	25 µM and > 100 µM	25 µM and > 100 µM		0.035 µM and 0.0932 µM				15.7 µM and 11 µM			

SMILES	TGI (TK-10 renal)	TGI (SK-MEL-2 melanoma)	TGI (HOP-62 NSCLC)	TGI (NCI/ADR-RES ovarian)	TGI (HCT-15 colon)	TGI (MOLT-4 leukemia)	TGI (SN12C renal)	GI50 (TK-10 renal)	GI50 (SK-MEL-2 melanoma)	GI50 (HOP-62 NSCLC)	GI50 (A498 renal)	TGI (A498 renal)	GI50 (NCI/ADR-RES ovarian)	GI50 (HCT-15 colon)	GI50 (MOLT-4 leukemia)	GI50 (SN12C renal)
CN(C)c1ccc(/C=C(\C#N)c2ccccc2)cc1	> 100 µM	> 100 µM	59.9 µM and > 100 µM	49.9 µM and > 100 µM and 74.1 µM	> 100 µM	> 100 µM	> 100 µM	0.553 µM and 0.999 µM and 4.9 µM	0.453 µM and 0.465 µM	1.37 µM and 0.993 µM and 0.567 µM	0.633 µM and 0.281 µM and 0.316 µM		0.348 µM and 0.395 µM and 0.324 µM	0.3 µM and 0.348 µM and 0.383 µM	0.372 µM and 0.439 µM and 0.545 µM	0.553 µM and 0.788 µM and 0.764 µM
CCOC(=O)C1=C(C)NC(C)=C(C(=O)OCCNC(=O)c2ccc(N=[N+]=[N-])cc2)C1c1ccccc1C(F)(F)F (centres undefined)	31.1 µM		> 21.5 µM	21.5 µM	21.5 µM	13.5 µM	21.5 µM									
CCCCOC(=O)/C=C\C(=O)NC(N)=O			> 100 µM	74.3 µM	38.3 µM	> 100 µM	> 100 µM			32.5 µM	29.3 µM	78.1 µM	27 µM	15.6 µM	38.3 µM	41.5 µM
COc1ccc(N=N/C(=N\NC(=O)c2cc(Br)ccc2O)c2ccc(N(CCC#N)CCC#N)cc2OC)cc1		> 150 µg/mL		> 150 µg/mL	> 150 µg/mL	> 150 µg/mL	> 150 µg/mL		95.8 µg/mL		> 150 µg/mL	> 150 µg/mL	42 µg/mL	42 µg/mL	52 µg/mL	77.6 µg/mL
COc1ccc(CN2C(=O)/C(=C\C(=O)c3ccc(OCCN4CCCC4)cc3)c3ccccc32)cc1	3.33 µM	37.4 µM	43.9 µM	47.7 µM	3.24 µM	7.11 µM		1.74 µM	17.1 µM	20.8 µM	18.1 µM	38.7 µM	5.71 µM	1.65 µM	2.91 µM	
Cc1cc2c(C(=O)NCC#N)cccc2n1-c1nc2c(c(NCc3ccccc3)n1)CCCC2	0.976 µM	0.644 µM		3.03 µM	0.404 µM	65.6 µM	0.904 µM	0.331 µM	0.231 µM				0.328 µM	0.192 µM	0.313 µM	0.31 µM
O=C1Nc2ccc(O)cc2/C1=C\c1ccncc1	39.8 µM	43.1 µM	56.4 µM	60.1 µM	39 µM		44.3 µM	18.6 µM	14.5 µM	23.9 µM	30.5 µM	49.9 µM	23.7 µM	11 µM		16.2 µM
Cc1cncc(-c2nc(NCCc3c[nH]c4ccccc34)c3ncn(C(C)C)c3n2)c1	52.8 µM	9.8 µM	22.9 µM	24 µM	3.82 µM		32.4 µM	10.3 µM	2.83 µM	6.01 µM	3.4 µM	16.9 µM	3.69 µM	1.67 µM		3.67 µM
COc1ccc(NC(=S)C#N)cc1	> 100 µM	> 100 µM	> 100 µM	> 100 µM	> 100 µM		> 100 µM					> 100 µM				
COC1=CC(c2ccc[nH]2)=N/C1=C\c1[nH]c(C)c(C(=O)Oc2ccccc2)c1C	2.55 µM	0.479 µM	3.86 µM	1.46 µM			2.41 µM	0.336 µM	0.194 µM	0.71 µM	0.648 µM	2.56 µM	0.185 µM			0.387 µM
CN1C(=O)/C(=C2\S/C(=N\c3nnc(-c4ccccc4)o3)NC2=O)c2ccccc21	> 100 µM	> 100 µM	> 100 µM	> 100 µM	> 100 µM	> 100 µM	> 100 µM	> 100 µM	> 100 µM	68.8 µM			84.7 µM	> 100 µM	> 100 µM	> 100 µM
CN1CCN(Cc2ccc(NC(=O)c3cncc(C#Cc4c(N)ncc5c(F)cccc45)c3)cc2C(F)(F)F)CC1	1.71 µM	1.93 µM	3.87 µM		1.3 µM	1.5 µM	1.43 µM	0.951 µM	0.809 µM	1.28 µM	0.763 µM	1.55 µM		0.6 µM	0.57 µM	0.743 µM
C/C=C(\C)c1cc(=O)c2c(C)cc3c(c2o1)C(OC)(OC(C)=O)c1c(O)c(C2CC(C)(N(C)C)C(OC(C)=O)C(C)O2)cc(C2CC(N(C)C)C(OC(C)=O)C(C)O2)c1C3=O (centres undefined)	> 100 µM		> 100 µM	> 25.7 µM	6.9 µM	10.3 µM	5.23 µM					3.49 µM				
O=C(Nc1ccn(C2CC(I)C(COC(c3ccccc3)(c3ccccc3)c3ccccc3)O2)c(=O)n1)c1ccccc1 (centres undefined)	21.5 µM		21.2 µM	20.2 µM	21.5 µM	12.1 µM	12.6 µM					13 µM				
c1ccc(COCC[P+](c2ccccc2)(c2ccccc2)c2ccccc2)cc1		4.96 µM	32.4 µM	57.1 µM	> 100 µM	12.4 µM	11.3 µM		1.93 µM	3.59 µM	1.33 µM	5.93 µM	19.7 µM	14.2 µM	2.1 µM	2.3 µM
O=c1c2ccccc2nc2n1CCc1c-2[nH]c2cc3c(cc12)OCO3	> 25 µM		> 25 µM	> 25 µM	> 25 µM	> 25 µM	> 25 µM									
